Where “and” joins values, the source holds several entries; their conditions need not be identical. Identical values can stand only once. Like-named read-outs stand apart in the source and are kept apart here.
Key:
E. coli [1] = settings: 0.5 mL of 0.05 OD culture, 5 mA electric current for 30 min; triplicate experiments
Protocol: To test this an E. coli culture was grown from a single colony in LB media at 37° C., until reaching 0.05 OD. Next, 0.5 mL of this culture was treated with 5 mA of electric current for 30 min. The counting of CFU/ml before and after applying the current for 30 min was done by plating 50 and 100 μL of 1:10,000 dilution respectively on LB agar plates and incubating at 37° C. for 18-24 hrs.

E. coli [2] = test: Killing (antimicrobial) test, CFU count; format: cell-based, Escherichia coli
Protocol: The initial colony forming units per mL (CFU/mL) were counted by plating 50 uL of a dilution 1:10,000 of the culture on LB agar plates. Next, 3 ml of the bacterial culture were treated with 1 ml of separately generated H2O2 0.75 M such that the final concentration of H2O2 in the bacteria containing plates reached around 0.25 M. To count the bacterial survival after treatment, 100 μl of 1:10,000 dilution were plated on LB agar plates and incubated at 37° C. for 18-24 hrs. The percentage of killed bacteria was calculated using the initial CFU as 100% and subtracting the recovered CFU after treatment.

[3] = tested on: Escherichia coli (strain BW25113); settings: paper filter disks moistened with 0.75 M generated hydrogen peroxide in PBS on seeded LB agar, 37° C. for 18-24 hr, qualitative
Protocol: A plate with Lysogeny Broth (LB) Agar media was evenly seeded with a 1 Optical Density (OD) culture of Escherichia coli (strain BW25113). […] Plates were left to dry and incubated at 37° C. for 18-24 hr.

In the case of OO [hydrogen peroxide], the “% Killed (%)” value (E. coli [1]) is reported as 99.6%, the “Peroxide Treated (CFU x 10^6)” value (E. coli [2]; 3 ml culture (0.05 OD) + 1 ml separately generated H2O2 0.75 M, final around 0.25 M, triplicate experiments) is reported as 1.2 CFU x 10^6 and 0.7 CFU x 10^6 and the “% Killed (%)” value (E. coli [2]; final H2O2 around 0.25 M, initial CFU as 100%, triplicate experiments) is reported as 96.1% and 96% and 94.2%. For the same compound, the “rate at which bacteria population is killed” value (E. coli [2]; from triplicate antimicrobial test, Table 4) was 2.5 % CFU/μmol H2O2, the “zone of growth inhibition” value [3] was “disinfection in region of clearance” and the “zone of growth inhibition” value ([3]; listed as H2O2) was “zone of growth inhibition”.

Reference: patent US20240033502A1 (Wesbot, LLC, priority 2022, published 2024)
